Among the data in ChEMBL document CHEMBL1201862, “PubChem BioAssay data set” (2004) are IC50 and AC50 values, retold here.

The term IC50 denotes the concentration that gives 50% inhibition. A higher IC50 goes with lower potency. As usually defined, the AC50 is the midpoint of the concentration-response curve, whichever way the signal moves.

Activity calls are given as the source filed them. How the calls were made is not given here.

Assay [1] addresses Serine/threonine-protein phosphatase PP1-alpha catalytic subunit (Homo sapiens, UniProt P62136). Put plainly: PP1 phosphatase inhibitors, dose response, biochemical, fluorescence (AID 2394).
Assay [2] can be described thus: ARNT/TACC3 interaction disruptors, potency, confirmation, biochemical, AlphaScreen, cherry-picked samples (AID 651703).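 Further: His-tagged ARNT PAS-B domain paired with GST-TACC3 E629A dimer coactivator fragment; potency of inhibitors that break up the complex and lower AlphaScreen signal.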 It counts as functional, Homo sapiens. (Alpha assays give light when donor and acceptor beads are brought close together.)

Chain of Serine/threonine-protein phosphatase PP1-alpha catalytic subunit (P62136 whole entry, the tested form may be a part): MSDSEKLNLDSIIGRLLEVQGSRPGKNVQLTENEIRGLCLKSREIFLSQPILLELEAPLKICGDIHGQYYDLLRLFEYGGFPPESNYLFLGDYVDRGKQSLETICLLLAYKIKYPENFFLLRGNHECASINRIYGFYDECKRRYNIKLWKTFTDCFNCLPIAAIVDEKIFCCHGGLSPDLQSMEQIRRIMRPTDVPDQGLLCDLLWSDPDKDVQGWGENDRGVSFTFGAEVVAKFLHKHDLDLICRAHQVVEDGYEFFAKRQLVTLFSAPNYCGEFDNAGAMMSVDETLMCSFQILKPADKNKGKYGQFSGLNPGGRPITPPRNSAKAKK

As to `C=CCn1c(NC(=O)c2ccccc2Cl)c(C#N)c2nc3ccccc3nc21`, the IC50 in assay [1] was 43.6 µM (not active).
`CCOC(=O)c1ccc(Nc2cc3ccccc3c(O)n2)cc1`: the AC50 in assay [2] is 84.2 µM (active).
